This assay has as its target MAPK14 (human) (UniProt Q16539). Description: Inhibition of LPS Stimulated TNF Production by U937 Cells. As to conditions: for inhibition: concentration not given here.

SMILES strings stand for the structures.

The inhibition is the change of the read-out against control, counted positive when it falls. For orientation: IC50 means the midpoint of a concentration-inhibition curve. Low values mean higher potency, high ones lower potency.

Sequence of MAPK14 (human) (Q16539 whole entry, looked up): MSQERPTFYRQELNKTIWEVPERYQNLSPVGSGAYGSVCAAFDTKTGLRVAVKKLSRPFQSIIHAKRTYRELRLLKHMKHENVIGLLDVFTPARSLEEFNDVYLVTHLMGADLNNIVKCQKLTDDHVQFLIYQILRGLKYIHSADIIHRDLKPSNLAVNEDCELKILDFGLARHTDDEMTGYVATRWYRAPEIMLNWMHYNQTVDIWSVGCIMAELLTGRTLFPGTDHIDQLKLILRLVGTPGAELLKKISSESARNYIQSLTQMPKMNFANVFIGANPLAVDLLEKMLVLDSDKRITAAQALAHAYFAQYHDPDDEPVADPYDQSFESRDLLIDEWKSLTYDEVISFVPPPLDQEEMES

Take `C[C@H](NC(=O)c1cc(F)ccc1F)c1[nH]nc(-c2ccc(F)cc2)c1-c1ccncc1`: the inhibition came out at 44%.
In turn, `Cn1nc(-c2ccc(F)cc2)c(-c2ccncc2)c1C(O)c1ccccc1` (stereo not drawn) gave an IC50 of 349 nM.
`C[C@H](NS(=O)(=O)C[C@]12CC[C@@H](CC1=O)C2(C)C)c1[nH]nc(-c2ccc(F)cc2)c1-c1ccncc1` showed an inhibition of 60%.
The molecule `Clc1ccc(-c2n[nH]cc2-c2ccnc(NCc3ccccn3)c2)cc1` came in with an IC50 of 166 nM.
The molecule `O=C(NCc1[nH]nc(-c2ccc(F)cc2)c1-c1ccncc1)c1c(F)cccc1C(F)(F)F` had an inhibition of 65%.
Turning to `O=S(=O)(NCc1[nH]nc(-c2ccc(F)cc2)c1-c1ccncc1)c1cc(Cl)cc(Cl)c1`, the inhibition was 45%.
Molecule `Cc1cccc(Cl)c1S(=O)(=O)N[C@@H](C)c1[nH]nc(-c2ccc(F)cc2)c1-c1ccncc1` showed an inhibition of 89%.
`Cc1[nH]nc(-c2ccc(Br)cc2)c1-c1ccncc1` registered an IC50 of 244 nM.
`O=C(NCc1[nH]nc(-c2ccc(F)cc2)c1-c1ccncc1)C(c1ccccc1)c1ccccc1` came in with an inhibition of 78%.
`COc1cccc(-c2[nH]nc(C)c2-c2ccncc2)c1` showed an IC50 of 477 nM.
The molecule `O=C(NCc1[nH]nc(-c2ccc(F)cc2)c1-c1ccncc1)c1ccc(C(F)(F)F)cc1` yielded an inhibition of 24%.
The same measure, in the same setting: the same measure for `Cn1cnc(S(=O)(=O)N2CCC(c3[nH]nc(-c4ccc(F)cc4)c3-c3ccncc3)CC2)c1`: 28%; for `C[C@H](NC(=O)c1cc(C(F)(F)F)ccc1F)c1[nH]nc(-c2ccc(F)cc2)c1-c1ccncc1`: 32%.
In turn, `CN(C)c1cccc2c(S(=O)(=O)NCc3[nH]nc(-c4ccc(F)cc4)c3-c3ccncc3)cccc12` yielded an inhibition of 2%.
For `O=S(=O)(c1ccccc1C(F)(F)F)N1CCC(c2[nH]nc(-c3ccc(F)cc3)c2-c2ccncc2)CC1`, the inhibition was determined as 29%.
The molecule `Cc1ccc(S(=O)(=O)N[C@@H](Cc2ccccc2)C(=O)N[C@H](C)c2[nH]nc(-c3ccc(F)cc3)c2-c2ccncc2)cc1` showed an inhibition of 10%.
The molecule `Cc1ccc(S(=O)(=O)N[C@@H](Cc2ccccc2)C(=O)NCCCc2[nH]nc(-c3ccc(F)cc3)c2-c2ccncc2)cc1` gave an inhibition of 36%.
On to `C[C@H](NS(=O)(=O)c1ccc(F)c(Cl)c1)c1[nH]nc(-c2ccc(F)cc2)c1-c1ccncc1`, for which the inhibition stood at 85%.
As for `CCCCS(=O)(=O)N[C@H](C)c1[nH]nc(-c2ccc(F)cc2)c1-c1ccncc1`, the inhibition worked out at 45%.
Regarding `CC(C)c1ccc(S(=O)(=O)NCc2[nH]nc(-c3ccc(F)cc3)c2-c2ccncc2)cc1`, the IC50 was more than 1000 nM.
In the case of `CNC(=O)CC[C@H](NC(=O)c1ccccc1OC)c1[nH]nc(-c2ccc(F)cc2)c1-c1ccncc1`, the IC50 is more than 1000 nM.
For the molecule `CC(=O)Nc1ccc(S(=O)(=O)N[C@H](C)c2[nH]nc(-c3ccc(F)cc3)c2-c2ccncc2)cc1`, the inhibition came to 64%.
Regarding `C[C@H](NC(=O)c1ccc(Cl)cc1Cl)c1[nH]nc(-c2ccc(F)cc2)c1-c1ccncc1`, the inhibition amounted to 28%.
In the case of `C[C@H](NC(=O)c1c(F)cccc1C(F)(F)F)c1[nH]nc(-c2ccc(F)cc2)c1-c1ccncc1`, the inhibition is 59%.
`O=C(NCc1[nH]nc(-c2ccc(F)cc2)c1-c1ccncc1)c1ccco1`: the inhibition worked out at 8%.
For the molecule `CCOc1ccc(-c2[nH]nc(C)c2-c2ccncc2)cc1`, the IC50 stood at 2360 nM.
Consider `CS(=O)(=O)NCc1[nH]nc(-c2ccc(F)cc2)c1-c1ccncc1`, for which the IC50 is 5000 nM.
As for `CC(C)S(=O)(=O)NCc1[nH]nc(-c2ccc(F)cc2)c1-c1ccncc1`, the IC50 was determined as 5000 nM.
Molecule `Cc1ccccc1C(=O)NCCc1[nH]nc(-c2ccc(F)cc2)c1-c1ccncc1` registered an inhibition of 9%.
Regarding `O=C(N[C@H](Cc1ccccc1)c1[nH]nc(-c2ccc(F)cc2)c1-c1ccncc1)C1CCCC1`, the inhibition is 3%.
Molecule `OCCCNc1cc(-c2c[nH]nc2-c2ccc(F)cc2)ccn1` yielded an IC50 of 97.3 nM.
`COc1ccc(CC(=O)N[C@@H](C)c2[nH]nc(-c3ccc(F)cc3)c2-c2ccncc2)cc1OC` returned an inhibition of 28%.
The molecule `C[C@@H](NS(=O)(=O)c1ccc(-c2ccon2)s1)c1[nH]nc(-c2ccc(F)cc2)c1-c1ccncc1` came in with an inhibition of 95%.
With `C=CCNC(=O)N[C@@H](C)c1[nH]nc(-c2ccc(F)cc2)c1-c1ccncc1`, the inhibition was found to be 42%.
On the same count and under the same terms, the result for `C[C@@H](NS(=O)(=O)C[C@]12CC[C@@H](CC1=O)C2(C)C)c1[nH]nc(-c2ccc(F)cc2)c1-c1ccncc1` reads 65%; that for `C[C@H](NC(=O)c1ccccc1F)c1[nH]nc(-c2ccc(F)cc2)c1-c1ccncc1`, 31%.
`O=C(N[C@H](Cc1ccccc1)c1[nH]nc(-c2ccc(F)cc2)c1-c1ccncc1)c1ccc(F)cc1` had an IC50 of more than 1000 nM.
The molecule `CN(C)S(=O)(=O)NCc1[nH]nc(-c2ccc(F)cc2)c1-c1ccncc1` gave an inhibition of 18%.
In turn, `FC(F)(F)c1cccc(-c2n[nH]cc2-c2ccncc2)c1` had an IC50 of 87 nM.
As to `O=S(=O)(NCc1[nH]nc(-c2ccc(F)cc2)c1-c1ccncc1)c1ccc(Cl)cc1`, the inhibition is 37%.
On to `Cn1cc(-c2ccnc(CCc3ccc(F)cc3)c2)c(-c2ccc(F)cc2)n1`, for which the IC50 is 327 nM.
`C[C@@H](NC(=O)c1ccc(Cl)cc1)c1[nH]nc(-c2ccc(F)cc2)c1-c1ccncc1` returned an inhibition of 36%.
`Cc1c(Cl)cccc1S(=O)(=O)NCCc1[nH]nc(-c2ccc(F)cc2)c1-c1ccncc1` had an inhibition of 29%.
`N#Cc1cccc(S(=O)(=O)N2CCC(c3[nH]nc(-c4ccc(F)cc4)c3-c3ccncc3)CC2)c1` returned an inhibition of 14%.
`COc1ccccc1C(=O)NCc1[nH]nc(-c2ccc(F)cc2)c1-c1ccncc1` had an IC50 of 4470 nM.
Molecule `CC(C)C(=O)NCc1[nH]nc(-c2ccc(F)cc2)c1-c1ccncc1` registered an IC50 of 650 nM.
As for `Cc1c(-c2ccncc2)c(-c2ccc(F)cc2)nn1CC(=O)N[C@H](C)c1cccc2ccccc12`, the inhibition came out at 23%.
In turn, `C[C@@H](NC(=O)c1cccc(Br)c1)c1[nH]nc(-c2ccc(F)cc2)c1-c1ccncc1` registered an inhibition of 27%.
Take `C[C@@H](NS(=O)(=O)c1cccc2nonc12)c1[nH]nc(-c2ccc(F)cc2)c1-c1ccncc1`: the inhibition amounted to 96%.
In turn, `O=C(N[C@H](Cc1ccccc1)c1[nH]nc(-c2ccc(F)cc2)c1-c1ccncc1)c1ccc(F)c(F)c1F` gave an IC50 of more than 1000 nM.
Take `C[C@@H](NC(=O)c1cccc(C#N)c1)c1[nH]nc(-c2ccc(F)cc2)c1-c1ccncc1`: the inhibition was determined as 37%.
`C[C@@H](NC(=O)c1cccs1)c1[nH]nc(-c2ccc(F)cc2)c1-c1ccncc1` gave an inhibition of 70%.
With `Cc1cc(C)c(S(=O)(=O)N[C@H](C)c2[nH]nc(-c3ccc(F)cc3)c2-c2ccncc2)c(C)c1`, the inhibition amounted to 65%.
On the same count and under the same terms, the result for `C[C@@H](NC(=O)c1ccc(C(F)(F)F)cc1F)c1[nH]nc(-c2ccc(F)cc2)c1-c1ccncc1` reads 48%; that for `O=C(NCc1[nH]nc(-c2ccc(F)cc2)c1-c1ccncc1)c1cccc(Br)c1`, 24%.
Take `C[C@H](NC(=O)c1c(F)ccc(F)c1F)c1[nH]nc(-c2ccc(F)cc2)c1-c1ccncc1`: the inhibition stood at 67%.
Regarding `C[C@@H](NC(=O)c1cc(Cl)cc(Cl)c1)c1[nH]nc(-c2ccc(F)cc2)c1-c1ccncc1`, the inhibition was 11%.
`C[C@H](NS(=O)(=O)c1ccccc1S(C)(=O)=O)c1[nH]nc(-c2ccc(F)cc2)c1-c1ccncc1`: the inhibition is 73%.

Values taken from the Kinase Knowledgebase extract (Sharma et al. 2016).
